Assay results from patent publication US20230138395A1, “PHARMACEUTICAL COMPOSITIONS OF A THERAPEUTIC POLYENE MACROLIDE AND METHODS OF THEIR USE” (priority 2020, published 2023).

Experiments:
[1] = Solubility of Compound 1A in lipids, oils and acrylate monomers; type: physicochemical
Description: In General, the Constituents of a PACA Particle Contains: • Aqueous phase: Brij L35, Kolliphor HS15 and HCl to adjust pH • Oil phase: acrylate monomer (ethyl hexylcyanoacrylate, ethyl butylcyanoacrylate, 1-heptyl cyanoacrylate, and 2-phenylethyl cyanoacrylate/butyl cyanoacrylate), Miglyol, vanillin, Compound 1A.
Lipid-based particles were investigated as a vehicle for Compound 1A.

Paecilomyces strains = experiment: MIC testing (CLSI M38-A2); type: cell-based, Paecilomyces spp.; conditions: Paecilomyces strains (5); in µg/mL

| Structure (SMILES) | solubility ([1]; in 1-heptyl cyanoacrylate and 2-phenylethyl cyanoacrylate/butyl cyanoacrylate) | solubility ([1]; in the tested oils and lipids listed) | solubility ([1]; in trans-cinnamaldehyde) | MIC Range (Paecilomyces strains) |
| --- | --- | --- | --- | --- |
| C[C@@H]1[C@H](O)[C@@H](C)/C=C/C=C/C=C/C=C/C=C/C=C/C=C/[C@H](O[C@@H]2O[C@H](C)[C@@H](O)[C@H](N)[C@@H]2O)C[C@@H]2O[C@](O)(C[C@@H](O)[C@H](O)CC[C@@H](O)C[C@@H](O)C[C@@H](O)CC(=O)O[C@H]1C)C[C@H](O)[C@H]2C [Compound 1A] | unable to dissolve | None of the tested oils or lipids dissolved Compound 1A well | somewhat soluble |  |
| C[C@@H](c1ncncc1F)[C@](O)(Cn1cncn1)c1ccc(F)cc1F [Voriconazole, voriconazole] |  |  |  | 0.125-2 |
